The results in this text go back to patent publication US9958436B2, “Determination of cell chirality” (THE TRUSTEES OF COLUMBIA UNIVERSITY IN THE CITY OF NEW YORK, priority 2011, dated 2018).

The subject of one assay is C2C12 cells. Put plainly: Cell chirality (alignment) on micropatterned rings, drug treatment, C2C12. The assay is classed as cell-based, mouse. As to conditions: for effect on left-right asymmetry: drugs that affect the actomyosin motor, 0.2-10 mM Y-27632, 1-20 mM ML-7, 0.5-10 mM Blebbistatin; for CCW: counter-clockwise alignment / CW: clockwise alignment / N/S: not significantly biased to CW or CCW: C2C12 on ring patterns, count of rings; for effect on chirality of C2C12 cells: low concentrations of the actin treadmilling inhibitors. The method, then:
(§1) Cells were maintained in tissue flasks with culture media specified in TABLE 2. After reaching 70% confluency, cells were trypsinized and seeded onto protein-coated patterned surfaces. Once the cells attached, extra cells were washed off with fresh medium. At this time drugs were added into the culture medium if necessary. Phase contrast images were taken after overnight incubation at 37° C. and 5% CO2 when cells reached confluency on the ring patterns.
(§2) To examine the role of actin in left-right (LR) asymmetry, cells were tested with 20-500 nM Latrunculin A, 0.05-1.0 μg/ml Cytochalasin D, and 1-100 nM Jasplakinolide. Latrunculin A inhibits actin polymerization by forming a 1:1 molar complex with G-actin, thereby inhibiting its ability to polymerize into F-actin (M. Coue, S. L. Brenner, I. Spector, E. D. Korn, FEBS Lett 213, 316 (Mar. 23, 1987)). Cytochalasin D inhibits actin polymerization by binding to the growing ends of F-actin chains and thus preventing the attachment and addition of G-actin monomers (J. A. Cooper, J Cell Biol 105, 1473 (October, 1987)). Jasplakinolide is known to bind to and stabilize actin filaments in vitro (M. R. Bubb, I. Spector, B. B. Beyer, K. M. Fosen, J Biol Chem 275, 5163 (Feb. 18, 2000)).
(§3) To examine the role of microtubules in LR asymmetry, 0.2-2 μM Nocodazole, and 0.3-30 nM Taxol were used. Nocodazole suppresses microtubule dynamics by destabilizing and disassembling microtubules (J. A. Cooper, J Cell Biol 105, 1473 (October, 1987)). Taxol inhibits the microtubule depolymerization and stabilizes microtubules (W. B. Derry, L. Wilson, M. A. Jordan, Biochemistry 34, 2203 (Feb. 21, 1995)).
To examine the role of the actomyosin motor, cells were tested with […], […], and 0.5-10 […]. Y-27632 works as a selective inhibitor to prevent the phosphorylation of the myosin regulatory light chain (T. Ishizaki et al., Mol Pharmacol 57, 976 (May, 2000)). ML-7 acts as a selective inhibitor of the myosin light chain kinase (M. Isemura, T. Mita, K. Satoh, K. Narumi, M. Motomiya, Cell Biol Int Rep 15, 965 (October, 1991)). Blebbistatin forms a low actin affinity complex through binding to myosin heads, causing the inhibition of nonmuscle myosin II ATPase activity (M. Kovacs, J. Toth, C. Hetenyi, A. Malnasi-Csizmadia, J. R. Sellers, J Biol Chem 279, 35557 (Aug. 20, 2004)).
(§4) High-resolution phase contrast images of live patterned cells were taken at a resolution of ˜0.645 μm/pixel, and analyzed using a custom-written code in MatLab (MathWorks, Natick, Mass.), based on the automated detection of intensity gradient and circular statistics (W. J. Karlon et al., Ann Biomed Eng 27, 712 (November-December, 1999)). In this algorithm, the intensity gradient was determined pixel by pixel with a Gaussian differential filter. In each sub-region of the image, the dominant local direction was determined using an accumulator scheme, in which the orientation of each pixel follows a von Mises distribution, a circular analogue of the linear normal distribution. Subsequently, the orientation in each sub-region was converted into an angle bias based on its deviation from the circumferential direction (see e.g., FIG. 2C). Mean angle and standard deviation of LR asymmetry were calculated for all sub-regions, using circular statistics (N. I. Fish, Statistical Analysis of Circular Data. (Cambridge University Press, Cambridge, UK, 1993)). […] The sub-region size was therefore set to 20 by 20 pixels (i.e., 13 by 13 μm).
(§5) Cell chirality on ring patterns (i.e., clockwise or counterclockwise alignment) was determined from calculated biased angles in local regions with one sample test for the mean angle, analogous to the one sample t-test in linear statistics (N. I. Fish, Statistical Analysis of Circular Data. (Cambridge University Press, Cambridge, UK, 1993)).

The next assay deals with hUVEC cells. Put plainly: Cell chirality (alignment) on micropatterned rings, drug treatment, hUVEC. The assay is classed as cell-based, human. As to conditions: hUVEC on ring patterns, count of rings. The method, then: as §1, §2, §3, §4, §5

As to `Cc1ccc2c(c1)C(=O)C1(O)CCN(c3ccccc3)C1=N2` (stereo not drawn) [Blebbistatin], in the assay with C2C12 cells (C2C12), the “effect on left-right asymmetry” value is listed as “did not affect left-right asymmetry”.

Turning to `C=C1[C@@H](C)[C@H]2[C@H](Cc3ccccc3)NC(=O)[C@]23[C@H](OC(C)=O)/C=C/[C@@](C)(O)C(=O)[C@@H](C)C/C=C/[C@H]3[C@@H]1O` [Cytochalasin D], the “CCW: counter-clockwise alignment” value is recorded as 0 in the assay on hUVEC cells (drug 0.1 μg/mL); 0 in the assay with hUVEC cells (drug 0.2 μg/mL); 1 in the assay on hUVEC cells (drug 0.5 μg/mL); 8 with C2C12 cells (drug 0.05 μg/mL); 3 in the assay with C2C12 cells (drug 0.1 μg/mL); 5 with C2C12 cells (drug 0.2 μg/mL). Besides, the “CCW: counter-clockwise alignment” value stood at 0 in the assay on C2C12 cells (drug 0.5 μg/mL) and 1 in the assay on C2C12 cells (drug 1 μg/mL). Moreover, the “CW: clockwise alignment” value in the assay with hUVEC cells (drug 0.1 μg/mL) amounted to 8; in the assay on hUVEC cells (drug 0.2 μg/mL) it was 10; in the assay with hUVEC cells (drug 0.5 μg/mL), 0; in the assay on C2C12 cells (drug 0.05 μg/mL) it was 9; with C2C12 cells (drug 0.1 μg/mL) it was 7; with C2C12 cells (drug 0.2 μg/mL), 21. Besides, the “CW: clockwise alignment” value is on record as 10 in the assay with C2C12 cells (drug 0.5 μg/mL) and 8 in the assay on C2C12 cells (drug 1 μg/mL). Further, the “N/S: not significantly biased to CW or CCW” value (“N/S: not significantly biased” below) in the assay on hUVEC cells (drug 0.1 μg/mL) amounted to 12; in the assay with hUVEC cells (drug 0.2 μg/mL), 22; in the assay with hUVEC cells (drug 0.5 μg/mL) it was 6; in the assay with C2C12 cells (drug 0.05 μg/mL) it was 6; with C2C12 cells (drug 0.1 μg/mL) it was 10; in the assay with C2C12 cells (drug 0.2 μg/mL) it was 23. Moreover, the “N/S: not significantly biased” value with C2C12 cells (drug 0.5 μg/mL) was found to be 14; with C2C12 cells (drug 1 μg/mL) it was 20. In addition, the “effect on chirality of C2C12 cells” value with C2C12 cells is “reversed the chirality of C2C12 cells from CCW into CW”.

On to `C/C1=C\[C@H](C)C[C@H](C)OC(=O)C[C@H](c2ccc(O)cc2)NC(=O)[C@@H](Cc2c(Br)[nH]c3ccccc23)N(C)C(=O)[C@H](C)NC(=O)[C@@H](C)C1` [Jasplakinolide], for which the “CCW: counter-clockwise alignment” value in the assay on hUVEC cells (drug 1 nM) was found to be 1; in the assay on hUVEC cells (drug 3 nM), 2; with hUVEC cells (drug 10 nM), 5; with hUVEC cells (drug 30 nM), 0; in the assay on hUVEC cells (drug 100 nM), 0; in the assay with C2C12 cells (drug 1 nM) it was 34. For the same compound, the “CCW: counter-clockwise alignment” value is 18 in the assay on C2C12 cells (drug 3 nM), 14 in the assay with C2C12 cells (drug 10 nM), 0 with C2C12 cells (drug 30 nM) and 0 in the assay with C2C12 cells (drug 100 nM). The “CW: clockwise alignment” value with hUVEC cells (drug 1 nM) turned out to be 32; in the assay on hUVEC cells (drug 3 nM) it was 22; in the assay with hUVEC cells (drug 10 nM), 22; in the assay with hUVEC cells (drug 30 nM) it was 5; in the assay on hUVEC cells (drug 100 nM), 1; with C2C12 cells (drug 1 nM), 2. Also, the “CW: clockwise alignment” value came out at 3 in the assay on C2C12 cells (drug 3 nM), 7 in the assay with C2C12 cells (drug 10 nM), 18 with C2C12 cells (drug 30 nM) and 7 in the assay on C2C12 cells (drug 100 nM). Further, the “N/S: not significantly biased” value is given as 1 in the assay with hUVEC cells (drug 1 nM); 5 with hUVEC cells (drug 3 nM); 10 in the assay on hUVEC cells (drug 10 nM); 4 in the assay with hUVEC cells (drug 30 nM); 5 with hUVEC cells (drug 100 nM); 10 with C2C12 cells (drug 1 nM). Besides, the “N/S: not significantly biased” value turned out to be 4 with C2C12 cells (drug 3 nM), 5 in the assay on C2C12 cells (drug 10 nM), 4 in the assay on C2C12 cells (drug 30 nM) and 9 in the assay on C2C12 cells (drug 100 nM). The “effect on chirality of C2C12 cells” value in the assay on C2C12 cells is “reversed the chirality of C2C12 cells from CCW into CW”.

As to `O=S(=O)(c1cccc2c(I)cccc12)N1CCCNCC1` [ML-7], the “effect on left-right asymmetry” value with C2C12 cells (C2C12) was “did not affect left-right asymmetry”.

`COC(=O)Nc1nc2ccc(C(=O)c3cccs3)cc2[nH]1` [Nocodazole]: the “CCW: counter-clockwise alignment” value with hUVEC cells (drug 200 nM) came to 3; in the assay with hUVEC cells (drug 500 nM), 2; with hUVEC cells (drug 1 μm), 0; in the assay with hUVEC cells (drug 2 μm), 0; in the assay with C2C12 cells (drug 200 nM), 57; with C2C12 cells (drug 500 nM), 35. Besides, the entries for the “CCW: counter-clockwise alignment” value with C2C12 cells (drug 1 μM) and with C2C12 cells (drug 2 μM) were 18 and 1, respectively. Besides, the “CW: clockwise alignment” value with hUVEC cells (drug 200 nM) was 25; in the assay on hUVEC cells (drug 500 nM) it was 14; in the assay with hUVEC cells (drug 1 μm), 3; in the assay with hUVEC cells (drug 2 μm), 1; in the assay with C2C12 cells (drug 200 nM) it was 0; with C2C12 cells (drug 500 nM) it was 0. In addition, the “CW: clockwise alignment” value in the assay on C2C12 cells (drug 1 μM) and in the assay with C2C12 cells (drug 2 μM) was 0 each time. Also, the “N/S: not significantly biased” value in the assay on hUVEC cells (drug 200 nM) is 76; in the assay with hUVEC cells (drug 500 nM), 27; in the assay with hUVEC cells (drug 1 μm), 4; in the assay with hUVEC cells (drug 2 μm) it was 7; in the assay with C2C12 cells (drug 200 nM), 18; in the assay with C2C12 cells (drug 500 nM), 58. Moreover, the entries for the “N/S: not significantly biased” value in the assay on C2C12 cells (drug 1 μM) and with C2C12 cells (drug 2 μM) were 21 and 6, respectively. Also, the “effect on cell chirality” value in the assay on C2C12 cells (C2C12, inhibitors of tubulin dynamics at concentrations below those resulting in cell apoptosis) is recorded as “did not change cell chirality”.

Regarding `C[C@@H](N)[C@H]1CC[C@H](C(=O)Nc2ccncc2)CC1` [Y-27632], the “effect on left-right asymmetry” value in the assay with C2C12 cells (C2C12) is recorded as “did not affect left-right asymmetry”.
